Laboratory results reported in PubChem BioAssay (NCI).
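In this assay, cells in 96-well plates receive the compound at five concentrations for 48 hours. Endpoints are linearly interpolated between the surrounding concentrations. TGI: concentration producing complete growth inhibition.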

Assays:
Test in all cases: NCI tumour cell line growth inhibition, 48 h
786-0 renal = system: 786-0 renal
A498 renal = system: A498 renal
A549 NSCLC = system: A549 NSCLC
ACHN renal = system: ACHN renal
BT-549 breast = system: BT-549 breast
CAKI-1 renal = system: CAKI-1 renal
COLO 205 colon = system: COLO 205 colon
DU-145 prostate = system: DU-145 prostate
EKVX NSCLC = system: EKVX NSCLC
HCC-2998 colon = system: HCC-2998 colon
HCT-116 colon = system: HCT-116 colon
HCT-15 colon = system: HCT-15 colon
HL-60(TB) leukemia = system: HL-60(TB) leukemia
HOP-62 NSCLC = system: HOP-62 NSCLC
HOP-92 NSCLC = system: HOP-92 NSCLC
HS 578T breast = system: HS 578T breast
HT29 colon = system: HT29 colon
IGROV1 ovarian = system: IGROV1 ovarian
K-562 leukemia = system: K-562 leukemia
KM12 colon = system: KM12 colon
LOX IMVI melanoma = system: LOX IMVI melanoma
MALME-3M melanoma = system: MALME-3M melanoma
MCF7 breast = system: MCF7 breast
MDA-MB-231 breast = system: MDA-MB-231 breast
MDA-MB-435 = system: MDA-MB-435
MDA-N = system: MDA-N
MOLT-4 leukemia = system: MOLT-4 leukemia
NCI-H226 lung = system: NCI-H226 lung
NCI-H460 lung = system: NCI-H460 lung
NCI-H522 lung = system: NCI-H522 lung
NCI/ADR-RES ovarian = system: NCI/ADR-RES ovarian
OVCAR-3 ovarian = system: OVCAR-3 ovarian
OVCAR-4 ovarian = system: OVCAR-4 ovarian
OVCAR-5 ovarian = system: OVCAR-5 ovarian
OVCAR-8 ovarian = system: OVCAR-8 ovarian
PC-3 prostate = system: PC-3 prostate
RPMI-8226 leukemia = system: RPMI-8226 leukemia
SF-268 CNS = system: SF-268 CNS
SF-295 CNS = system: SF-295 CNS
SF-539 CNS = system: SF-539 CNS
SK-MEL-2 melanoma = system: SK-MEL-2 melanoma
SK-MEL-28 melanoma = system: SK-MEL-28 melanoma
SK-MEL-5 melanoma = system: SK-MEL-5 melanoma
SK-OV-3 ovarian = system: SK-OV-3 ovarian
SN12C renal = system: SN12C renal
SNB-19 CNS = system: SNB-19 CNS
SR leukemia = system: SR leukemia
SW-620 colon = system: SW-620 colon
T-47D breast = system: T-47D breast
TK-10 renal = system: TK-10 renal
U251 CNS = system: U251 CNS
UACC-257 melanoma = system: UACC-257 melanoma
UACC-62 melanoma = system: UACC-62 melanoma
UO-31 renal = system: UO-31 renal
CCRF-CEM leukemia = system: CCRF-CEM leukemia
M14 melanoma = system: M14 melanoma
NCI-H23 lung = system: NCI-H23 lung
RXF 393 renal = system: RXF 393 renal
SNB-75 CNS = system: SNB-75 CNS

What does the source list for `COc1ccc(CNc2nc(NCc3ccc(OC)cc3)nc(NC3CCCCC3)n2)cc1`?
TGI (786-0 renal): > 100 µM; TGI (A498 renal): > 100 µM; TGI (A549 NSCLC): 5.31 µM; TGI (ACHN renal): > 100 µM; TGI (BT-549 breast): 37.9 µM; TGI (CAKI-1 renal): 4.86 µM; TGI (COLO 205 colon): 5.35 µM; TGI (DU-145 prostate): 6.88 µM; TGI (EKVX NSCLC): 8.5 µM; TGI (HCC-2998 colon): 3.74 µM; TGI (HCT-116 colon): 11.7 µM; TGI (HCT-15 colon): 9.52 µM; TGI (HL-60(TB) leukemia): > 100 µM; TGI (HOP-62 NSCLC): > 100 µM; TGI (HOP-92 NSCLC): > 100 µM; TGI (HS 578T breast): 4.85 µM; TGI (HT29 colon): > 100 µM; TGI (IGROV1 ovarian): 6.22 µM; TGI (K-562 leukemia): > 100 µM; TGI (KM12 colon): 5.47 µM; TGI (LOX IMVI melanoma): 20.2 µM; TGI (MALME-3M melanoma): 1.61 µM; TGI (MCF7 breast): 533 nM; TGI (MDA-MB-231 breast): 7.73 µM; TGI (MDA-MB-435): 1940 nM; TGI (MDA-N): > 100 µM; TGI (MOLT-4 leukemia): > 100 µM; TGI (NCI-H226 lung): 5.71 µM; TGI (NCI-H460 lung): 7.78 µM; TGI (NCI-H522 lung): 3.39 µM; TGI (NCI/ADR-RES ovarian): 5.36 µM; TGI (OVCAR-3 ovarian): 6.24 µM; TGI (OVCAR-4 ovarian): > 100 µM; TGI (OVCAR-5 ovarian): > 100 µM; TGI (OVCAR-8 ovarian): 7.17 µM; TGI (PC-3 prostate): > 100 µM; TGI (RPMI-8226 leukemia): > 100 µM; TGI (SF-268 CNS): 6.5 µM; TGI (SF-295 CNS): 4.14 µM; TGI (SF-539 CNS): > 100 µM; TGI (SK-MEL-2 melanoma): 7.86 µM; TGI (SK-MEL-28 melanoma): > 100 µM; TGI (SK-MEL-5 melanoma): > 100 µM; TGI (SK-OV-3 ovarian): > 100 µM; TGI (SN12C renal): > 100 µM; TGI (SNB-19 CNS): 5.96 µM; TGI (SR leukemia): > 100 µM; TGI (SW-620 colon): > 100 µM; TGI (T-47D breast): > 100 µM; TGI (TK-10 renal): 4.11 µM; TGI (U251 CNS): > 100 µM; TGI (UACC-257 melanoma): > 100 µM; TGI (UACC-62 melanoma): 9.41 µM; TGI (UO-31 renal): 96.6 µM

With `COc1cc(S(=O)(=O)Nc2nc(-c3ccc(N4C(=O)/C(=C/c5ccccc5)N=C4c4ccccc4)cc3)cs2)ccc1Cl` as the molecule, how does the TGI (786-0 renal) read?
The TGI was > 100 µM.

What about the TGI (A498 renal) of the same molecule?
Its TGI is > 100 µM.

What about the TGI (A549 NSCLC) of the same molecule?
Its TGI is > 100 µM.

And the TGI (ACHN renal)?
Its TGI is > 100 µM.

And the TGI (BT-549 breast)?
The TGI was 75 µM.

And the TGI (CAKI-1 renal)?
The TGI was > 100 µM.

What about the TGI (CCRF-CEM leukemia) of the same molecule?
The TGI was > 100 µM.

What about the TGI (COLO 205 colon) of the same molecule?
The TGI was > 100 µM.

What about the TGI (DU-145 prostate) of the same molecule?
Its TGI is > 100 µM.

And the TGI (HCT-116 colon)?
The TGI was > 100 µM.

And the TGI (HCT-15 colon)?
Its TGI is > 100 µM.

What about the TGI (HOP-62 NSCLC) of the same molecule?
The TGI was > 100 µM.

And the TGI (HOP-92 NSCLC)?
Its TGI is > 100 µM.

And the TGI (HS 578T breast)?
The TGI was 93.6 µM.

And the TGI (HT29 colon)?
The TGI was > 100 µM.

What about the TGI (IGROV1 ovarian) of the same molecule?
Its TGI is > 100 µM.

And the TGI (K-562 leukemia)?
Its TGI is > 100 µM.

And the TGI (KM12 colon)?
The TGI was > 100 µM.

What about the TGI (LOX IMVI melanoma) of the same molecule?
The TGI was > 100 µM.

And the TGI (M14 melanoma)?
Its TGI is > 100 µM.

What about the TGI (MALME-3M melanoma) of the same molecule?
The TGI was 83.6 µM.

What about the TGI (MCF7 breast) of the same molecule?
The TGI was > 100000 nM.

And the TGI (MDA-MB-231 breast)?
Its TGI is 70.1 µM.

And the TGI (MDA-MB-435)?
The TGI was > 100000 nM.

What about the TGI (MDA-N) of the same molecule?
The TGI was > 100 µM.

What about the TGI (MOLT-4 leukemia) of the same molecule?
Its TGI is > 100 µM.

What about the TGI (NCI-H226 lung) of the same molecule?
The TGI was > 100 µM.

And the TGI (NCI-H23 lung)?
Its TGI is 80.4 µM.

What about the TGI (NCI-H460 lung) of the same molecule?
The TGI was > 100 µM.

What about the TGI (NCI-H522 lung) of the same molecule?
Its TGI is > 100 µM.

And the TGI (NCI/ADR-RES ovarian)?
Its TGI is > 100 µM.

And the TGI (OVCAR-3 ovarian)?
The TGI was > 100 µM.

What about the TGI (OVCAR-4 ovarian) of the same molecule?
The TGI was > 100 µM.

What about the TGI (OVCAR-5 ovarian) of the same molecule?
The TGI was > 100 µM.

And the TGI (OVCAR-8 ovarian)?
Its TGI is > 100 µM.

And the TGI (PC-3 prostate)?
The TGI was > 100 µM.

What about the TGI (RXF 393 renal) of the same molecule?
Its TGI is 91.7 µM.

And the TGI (SF-268 CNS)?
Its TGI is > 100 µM.

And the TGI (SF-295 CNS)?
The TGI was > 100 µM.

And the TGI (SF-539 CNS)?
Its TGI is > 100 µM.

What about the TGI (SK-MEL-2 melanoma) of the same molecule?
The TGI was 84.8 µM.

What about the TGI (SK-MEL-28 melanoma) of the same molecule?
Its TGI is > 100 µM.

What about the TGI (SK-MEL-5 melanoma) of the same molecule?
The TGI was > 100 µM.

What about the TGI (SK-OV-3 ovarian) of the same molecule?
The TGI was > 100 µM.

And the TGI (SN12C renal)?
Its TGI is > 100 µM.

What about the TGI (SNB-19 CNS) of the same molecule?
The TGI was > 100 µM.

And the TGI (SNB-75 CNS)?
The TGI was > 100 µM.

And the TGI (SR leukemia)?
Its TGI is > 100 µM.

And the TGI (SW-620 colon)?
Its TGI is > 100 µM.

And the TGI (T-47D breast)?
The TGI was > 100 µM.

What about the TGI (TK-10 renal) of the same molecule?
Its TGI is > 100 µM.

And the TGI (U251 CNS)?
The TGI was > 100 µM.

And the TGI (UACC-257 melanoma)?
Its TGI is > 100 µM.

And the TGI (UACC-62 melanoma)?
The TGI was 50.8 µM.

And the TGI (UO-31 renal)?
The TGI was > 100 µM.
